Results published in ChEMBL document CHEMBL1152139, “Pterocarpans and flavanones from Sophora flavescens displaying potent neuraminidase inhibition” (Bioorg Med Chem Lett, 2008).

Key:
[1] = Inhibition of mouse liver sialidase
[2] = Inhibition of Clostridium perfringens neuraminidase
[3] = Inhibition of Clostridium perfringens neuraminidase by Lineweaver-Burke plot

Structure (SMILES)	IC50 [1] [µM]	IC50 [2] [µM]	Ki [3] [µM]
O=C(O)[C@H]1O[C@@H](Oc2c(O)c(O[C@@H]3O[C@H](C(=O)O)[C@@H](O)[C@H](O)[C@H]3O)c3oc(-c4ccc(O)cc4)cc(=O)c3c2O)[C@H](O)[C@@H](O)[C@@H]1O	40	–	–
C=C(C)[C@H](CCC(C)(C)O)Cc1c(O)cc(OC)c2c1O[C@H](c1ccc(O)cc1O)CC2=O [KURARINOL]	–	17	19.7
C=C(C)C(CC=C(C)C)Cc1c(O)cc(OC)c2c1O[C@H](c1ccc(O)cc1O)CC2=O (stereo not given in full) [KURARINONE]	–	15.1	18.8
C=C(C)[C@H](CC=C(C)C)Cc1c(O)cc(O)c2c1O[C@H](c1ccccc1O)CC2=O [KUSHENOL A]	–	14.8	17.1
C=C(C)[C@H](CCC(C)(C)O)Cc1c(O)cc(O)c2c1O[C@H](c1ccccc1O)CC2=O [KUSHENOL T]	–	12.1	10.8
Oc1ccc2c(c1)OC[C@H]1c3cc4c(cc3O[C@@H]21)OCO4 [MAACKIAIN]	–	3.2	2.1
O=c1c2cc(O)c(O)cc2oc2cc(O)c([C@@H]3O[C@H](CO)[C@@H](O)[C@H](O)[C@H]3O)c(O)c12 [MANGIFERIN]	–	16.2	–
C=C(C)[C@H](CCC(C)(C)O)Cc1c(O)cc(O)c2c1O[C@H](c1ccc(O)cc1O)CC2=O [NORKURARINOL]	–	18.3	22.7
COc1ccc2c(c1)OC[C@H]1c3cc4c(cc3O[C@@H]21)OCO4 [PTEROCARPIN]	–	1.4	1.7
C=C(C)[C@H](CC=C(C)C)Cc1c(O)cc(O)c2c1O[C@H](c1ccc(O)cc1O)CC2=O [SOPHORAFLAVANONE G]	–	13.5	20
OC[C@H]1O[C@@H](Oc2ccc3c(c2)OC[C@H]2c4cc5c(cc4O[C@@H]32)OCO5)[C@H](O)[C@@H](O)[C@@H]1O [TRIFOLIRHIZIN]	–	237	190
